Data taken from ChEMBL document CHEMBL4017477, “Synthesis and evaluation of 4,6-disubstituted pyrimidines as CNS penetrant pan-muscarinic antagonists with a novel chemotype” (Bioorg Med Chem Lett, 2017).

How the values were obtained:
[1] = target: T1, Muscarinic acetylcholine receptor M4 (Homo sapiens, UniProt P08173); test: Antagonist activity at recombinant human M4 receptor expressed in CHO cells co-expressing Gqi5 by calcium mobilization assay; format: functional, cell-based
T1 sequence (P08173 whole entry): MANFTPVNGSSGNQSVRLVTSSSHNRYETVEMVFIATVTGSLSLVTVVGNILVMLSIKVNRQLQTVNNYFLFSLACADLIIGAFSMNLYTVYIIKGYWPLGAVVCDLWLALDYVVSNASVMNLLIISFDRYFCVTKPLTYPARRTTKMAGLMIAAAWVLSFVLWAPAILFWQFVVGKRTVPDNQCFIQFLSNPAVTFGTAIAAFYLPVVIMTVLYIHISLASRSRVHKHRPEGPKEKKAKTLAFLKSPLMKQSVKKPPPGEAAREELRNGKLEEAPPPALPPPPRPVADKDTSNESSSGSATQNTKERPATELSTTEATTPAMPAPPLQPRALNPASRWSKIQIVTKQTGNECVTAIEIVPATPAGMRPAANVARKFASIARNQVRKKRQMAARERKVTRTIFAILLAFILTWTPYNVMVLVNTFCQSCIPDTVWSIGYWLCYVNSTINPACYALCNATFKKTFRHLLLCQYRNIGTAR

[2] = target: T2, Muscarinic acetylcholine receptor M4 (Homo sapiens) (UniProt P08173); test: Antagonist activity at recombinant human M4 receptor expressed in CHO cells co-expressing Gqi5 by calcium mobilization assay relative to acetylcholine; format: functional, cell-based
T2 sequence (whole entry): T1 sequence (P08173 whole entry)

[3] = target: T3, Muscarinic acetylcholine receptor M5 (Homo sapiens, UniProt P08912); test: Antagonist activity at recombinant human M5 receptor expressed in CHO cells co-expressing Gqi5 by calcium mobilization assay; format: functional, cell-based
T3 sequence (P08912 whole entry): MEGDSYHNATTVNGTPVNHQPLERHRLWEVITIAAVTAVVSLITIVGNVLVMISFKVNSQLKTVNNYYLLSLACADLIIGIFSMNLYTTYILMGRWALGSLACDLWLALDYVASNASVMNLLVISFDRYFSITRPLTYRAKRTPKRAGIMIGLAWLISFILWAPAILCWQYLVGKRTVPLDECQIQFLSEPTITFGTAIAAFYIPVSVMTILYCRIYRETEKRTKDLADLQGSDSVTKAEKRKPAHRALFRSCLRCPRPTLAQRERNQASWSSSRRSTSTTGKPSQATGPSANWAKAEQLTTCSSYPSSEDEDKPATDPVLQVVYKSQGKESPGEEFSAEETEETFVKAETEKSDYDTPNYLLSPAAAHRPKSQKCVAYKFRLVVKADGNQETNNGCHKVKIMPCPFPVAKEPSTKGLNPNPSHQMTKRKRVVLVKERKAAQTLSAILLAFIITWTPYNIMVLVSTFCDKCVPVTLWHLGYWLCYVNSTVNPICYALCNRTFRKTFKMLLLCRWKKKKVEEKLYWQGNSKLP

[4] = target: T4, Muscarinic acetylcholine receptor M3 (Homo sapiens, UniProt P20309); test: Antagonist activity at recombinant human M3 receptor expressed in CHO cells co-expressing Gqi5 by calcium mobilization assay; format: functional, cell-based
Target sequence in this assay (P20309 whole entry): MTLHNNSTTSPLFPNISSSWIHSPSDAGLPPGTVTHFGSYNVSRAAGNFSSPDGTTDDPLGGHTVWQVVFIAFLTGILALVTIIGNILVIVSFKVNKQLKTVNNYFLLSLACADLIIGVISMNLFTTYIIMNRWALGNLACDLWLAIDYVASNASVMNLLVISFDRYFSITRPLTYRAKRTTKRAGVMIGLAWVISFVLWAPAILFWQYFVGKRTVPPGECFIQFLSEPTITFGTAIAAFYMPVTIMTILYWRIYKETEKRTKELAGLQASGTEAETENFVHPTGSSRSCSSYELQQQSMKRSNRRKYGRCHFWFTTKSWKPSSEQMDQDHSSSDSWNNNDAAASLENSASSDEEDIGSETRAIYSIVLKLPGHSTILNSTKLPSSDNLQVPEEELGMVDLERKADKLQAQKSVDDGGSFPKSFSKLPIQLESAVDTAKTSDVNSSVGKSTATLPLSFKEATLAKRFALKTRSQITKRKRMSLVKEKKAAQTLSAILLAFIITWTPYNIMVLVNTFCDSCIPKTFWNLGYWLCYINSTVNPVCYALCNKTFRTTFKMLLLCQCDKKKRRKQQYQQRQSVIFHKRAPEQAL

[5] = target: T5, Muscarinic acetylcholine receptor M5 (Homo sapiens) (UniProt P08912); test: Antagonist activity at recombinant human M5 receptor expressed in CHO cells co-expressing Gqi5 by calcium mobilization assay relative to acetylcholine; format: functional, cell-based
T5 sequence (whole entry): T3 sequence (P08912 whole entry)

[6] = target: T6, Muscarinic acetylcholine receptor M4 (Rattus norvegicus, UniProt P08485); test: Antagonist activity at rat M4 receptor by calcium mobilization assay; format: functional
T6 sequence (P08485 whole entry): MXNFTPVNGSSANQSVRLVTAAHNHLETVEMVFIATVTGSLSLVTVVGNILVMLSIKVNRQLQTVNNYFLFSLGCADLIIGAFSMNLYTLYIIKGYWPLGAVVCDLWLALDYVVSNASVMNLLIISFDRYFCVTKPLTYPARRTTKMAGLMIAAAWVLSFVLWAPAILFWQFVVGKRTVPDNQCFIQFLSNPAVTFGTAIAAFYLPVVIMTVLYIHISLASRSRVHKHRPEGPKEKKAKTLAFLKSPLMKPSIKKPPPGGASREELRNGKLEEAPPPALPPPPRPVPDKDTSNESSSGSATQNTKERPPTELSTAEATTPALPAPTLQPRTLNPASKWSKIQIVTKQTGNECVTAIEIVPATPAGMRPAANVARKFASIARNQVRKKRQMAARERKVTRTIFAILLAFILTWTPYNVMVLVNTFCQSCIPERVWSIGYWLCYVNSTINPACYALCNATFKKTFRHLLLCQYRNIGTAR

[7] = target: T7, Muscarinic acetylcholine receptor M2 (Homo sapiens, UniProt P08172); test: Antagonist activity at recombinant human M2 receptor expressed in CHO cells co-expressing Gqi5 by calcium mobilization assay; format: functional, cell-based
T7 sequence (P08172 whole entry): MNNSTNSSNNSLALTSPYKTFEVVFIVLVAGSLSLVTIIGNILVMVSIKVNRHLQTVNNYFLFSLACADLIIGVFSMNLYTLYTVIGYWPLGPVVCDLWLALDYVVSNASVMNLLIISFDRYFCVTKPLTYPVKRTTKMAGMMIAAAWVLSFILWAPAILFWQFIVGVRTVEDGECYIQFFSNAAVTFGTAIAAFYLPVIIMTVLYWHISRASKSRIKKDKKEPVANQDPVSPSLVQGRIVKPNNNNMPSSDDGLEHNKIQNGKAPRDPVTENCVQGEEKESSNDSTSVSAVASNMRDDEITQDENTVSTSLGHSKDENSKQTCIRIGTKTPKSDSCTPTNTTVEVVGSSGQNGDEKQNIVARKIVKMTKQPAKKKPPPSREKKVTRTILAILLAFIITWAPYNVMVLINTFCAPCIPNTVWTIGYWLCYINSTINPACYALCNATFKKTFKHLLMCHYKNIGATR

[8] = Brain to plasma partition coefficient, Kp of the compound in rat; format: ADME
[9] = Clearance in rat at 0.2 mg/kg administered as iv cassette dose; details: in vivo
[10] = Elimination half life in rat at 0.2 mg/kg administered as iv cassette dose; details: in vivo, read-out: beta t1/2 (converted)
[11] = target: T8, Muscarinic acetylcholine receptor M2 (Homo sapiens) (UniProt P08172); test: Antagonist activity at recombinant human M2 receptor expressed in CHO cells co-expressing Gqi5 by calcium mobilization assay relative to acetylcholine; format: functional, cell-based
T8 sequence (whole entry): T7 sequence (P08172 whole entry)

[12] = target: T9, Muscarinic acetylcholine receptor M4 (Rattus norvegicus) (UniProt P08485); test: Antagonist activity at rat M4 receptor by calcium mobilization assay relative to acetylcholine; format: functional
T9 sequence (whole entry): T6 sequence (P08485 whole entry)

[13] = target: T10, Muscarinic acetylcholine receptor M1 (Homo sapiens) (UniProt P11229); test: Antagonist activity at recombinant human M1 receptor expressed in CHO cells co-expressing Gqi5 by calcium mobilization assay relative to acetylcholine; format: functional, cell-based
T10 sequence (whole entry): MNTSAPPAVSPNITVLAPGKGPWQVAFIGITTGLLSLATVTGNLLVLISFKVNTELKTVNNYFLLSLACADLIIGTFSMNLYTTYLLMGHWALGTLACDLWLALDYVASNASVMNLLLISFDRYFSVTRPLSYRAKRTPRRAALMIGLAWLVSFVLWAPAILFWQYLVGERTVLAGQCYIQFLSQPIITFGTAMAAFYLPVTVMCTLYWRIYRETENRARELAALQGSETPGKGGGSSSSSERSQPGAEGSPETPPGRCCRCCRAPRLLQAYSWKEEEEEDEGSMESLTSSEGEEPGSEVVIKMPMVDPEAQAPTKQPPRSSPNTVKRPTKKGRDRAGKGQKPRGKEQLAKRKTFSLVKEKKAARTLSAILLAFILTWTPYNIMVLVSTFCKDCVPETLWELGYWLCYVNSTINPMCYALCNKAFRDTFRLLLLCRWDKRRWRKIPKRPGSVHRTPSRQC

[14] = Volume of distribution at steady state in rat at 0.2 mg/kg administered as iv cassette dose; details: in vivo, read-out: Vdss
[15] = target: T4, Muscarinic acetylcholine receptor M3; test: Antagonist activity at recombinant human M3 receptor expressed in CHO cells co-expressing Gqi5 by calcium mobilization assay relative to acetylcholine; format: functional, cell-based
Target sequence in this assay (P20309 whole entry, looked up): as the sequence (P20309 whole entry) above

[16] = target: T11, Muscarinic acetylcholine receptor M1 (Homo sapiens, UniProt P11229); test: Antagonist activity at recombinant human M1 receptor expressed in CHO cells co-expressing Gqi5 by calcium mobilization assay; format: functional, cell-based
T11 sequence (P11229 whole entry): T10 sequence (whole entry)

[17] = Ratio of unbound brain to plasma concentration in rat; format: ADME; details: brain

| Structure (SMILES) | IC50 ([1]; read-out: IC50) [µM] | IC50 ([1]; read-out: pIC50 (converted)) [µM] | Emin [2] [%] | other results |
| --- | --- | --- | --- | --- |
| O=C(C1CCN(c2cc(Oc3ccc(F)cc3F)ncn2)CC1)N1CCc2cc(C(F)(F)F)ccc2C1 | > 10 | – | – | – |
| O=C(C1CCN(c2cc(Oc3ccc4ccccc4c3)ncn2)CC1)N1CCc2ccccc2C1 | – | – | 6.8 | – |
| COc1ccc2c(c1)CN(C(=O)C1CCN(c3cc(Oc4ccc(F)cc4F)ncn3)CC1)CC2 | 2.47 | 2.4 | 11.8 | – |
| O=C(C1CCN(c2cc(Oc3c(F)cccc3F)ncn2)CC1)N1CCc2ccccc2C1 | – | – | 7 | – |
| CN(Cc1ccccc1)C(=O)C1CCN(c2cc(Oc3ccc(F)cc3F)ncn2)CC1 | > 10 | – | – | – |
| O=C(NCc1ccccc1)C1CCN(c2cc(Oc3ccc(F)cc3F)ncn2)CC1 | > 10 | – | – | – |

The next lines start with results.

| IC50 ([1]; read-out: IC50) [µM] | IC50 ([1]; read-out: pIC50 (converted)) [µM] | Emin [2] [%] | Structure (SMILES) | other results |
| --- | --- | --- | --- | --- |
| 0.19 | 0.17 | 3.1 | O=C(C1CCN(c2cc(Oc3cccc(F)c3F)ncn2)CC1)N1CCc2ccccc2C1 | – |
| 0.31 | – | 3.3 | Cc1ccc(Oc2cc(N3CCC(C(=O)N4CCc5ccccc5C4)CC3)ncn2)cc1 | – |
| 0.27 | – | 3 | O=C(C1CCN(c2cc(Oc3ccc(Cl)cc3Cl)ncn2)CC1)N1CCc2ccccc2C1 | – |
| 0.34 | 0.324 | 18.4 | O=C(C1CCN(c2cc(Oc3ccc(F)cc3F)ncn2)CC1)N1Cc2ccccc2C1 | IC50 [3]: 1.13 µM; IC50 [4]: 0.66 µM; Emin [5]: 42.6%; IC50 ([6]; read-out: IC50): 0.56 µM; IC50 ([6]; read-out: pIC50 (converted)): 0.479 µM; IC50 [7]: 0.52 µM; Kp [8]: 0.67; clearance [9]: 5.37 mL/min/kg; half-life [10]: 3.7 h; Emin [11]: 8.7%; Emin [12]: 42.7%; Emin [13]: 18.2%; Vd [14]: 1.35 L/kg; Emin [15]: 2.3%; IC50 [16]: 0.54 µM; K(p,uu,brain) [17]: 0.87 |
| 0.58 | 0.562 | 5.5 | COc1ccc2c(c1)CCN(C(=O)C1CCN(c3cc(Oc4ccc(F)cc4F)ncn3)CC1)C2 | – |
| 0.31 | – | 3.2 | O=C(C1CCN(c2cc(Oc3cccc(F)c3)ncn2)CC1)N1CCc2ccccc2C1 | – |
